{"source": "patent US20130184316A1", "about": "“METHODS FOR DIAGNOSING AND TREATING CONCUSSIVE DISORDERS” (priority 2010, published 2013)", "key": {"subject with PCS [1]": {"system": "subject with PCS", "test": "Subjective symptom assessment, Rivermead Post-Concussion Questionnaire", "type": "in vivo, human", "experimental": "(§1) A single subject, prospective, double blind, placebo controlled trial of 4AP was then conducted in this individual. IRB approvals were obtained from all participating institutions and Subject gave written informed consent for all parts of the study. After a 4-week medication washout period, the Subject was randomly assigned a week's course of placebo, followed by a weeklong medication washout period, followed by another week on 4-AP (10 mg twice daily). Based on the medication half-life, a one week washout period was presumed to be sufficient. Subject and assessors were blinded to treatment allocation.\n(§2) Measurements conducted at identical times at baseline and on each of the subsequent 3 weeks of the study included: • Balance and mobility assessed by Hi-Mat test (Arch. Phys. Med. Rehabil. 2006, 87(3), 437-442; hereby incorporated by reference in its entirety). • Subjective symptom assessment using the Rivermead Post-Concussion Questionnaire (Clin. Rehabil. 2005, 19(8), 878-887; hereby incorporated by reference in its entirety). • Neuropsychological assessment, consisting of the digit span and cancellation tests from the Wechsler Adult Intelligence Scale, 4th edition (Coalson, D. L., Engi-Raiford, S. Wechsler Adult Intelligence Scale, 4th Ed., in Technical and Interpretive Manual, 4th Ed., San Antonio: Pearson (2008); hereby incorporated by reference in its entirety), the California Verbal Learning Test II (CVLT) (Delis, D. C., Kramer, J. H., Kaplan, E., Ober, B. A. in CVLT-II Manual, San Antonio: The Psychological Corporation (2000); hereby incorporated by reference in its entirety), the Verbal Fluency Test (Connors Continuous Performance Test Computer II Program Version 5 Users Manual, Toronto: Multi-Health Systems, Inc. (2002); hereby incorporated by reference in its entirety), and the Connors Continuous Performance Test (J. Nervous Ment. Dis. 1985, 173(6), 353-357; hereby incorporated by reference in its entirety). • Videonystagmography (VNG) and rotary chair (RC) vestibular testing […]"}, "subject with PCS [2]": {"system": "subject with PCS", "test": "Cancellation test, Wechsler Adult Intelligence Scale 4th edition", "type": "in vivo, human", "experimental": "as §1, §2"}, "subject with PCS [3]": {"system": "subject with PCS", "test": "Abbreviated Abnormal Involuntary Movement Scale (AIMS), blinded raters of video recordings", "type": "in vivo, human", "text": "During testing sessions, study personnel noted relapse of paroxysmal grimacing, weakness, sialorrhea, slurred speech, and slowed responses that the Subject had experienced prior to starting 4AP. In an effort to corroborate the presence of abnormal movements, video recordings of identical testing segments were reviewed by raters, physical, occupational, and speech therapists all with experience working with TBI. Raters were blinded to subject history and study variables. Absent any established rating scales for the unusual phenomenon observed, an abbreviated version of the Abnormal Involuntary Movement Scale (AIMS) was used (Prog. Brain Res. 2007, 161, 327-338; hereby incorporated by reference in its entirety)."}, "subject with PCS [4]": {"system": "subject with PCS", "test": "Single subject double blind placebo controlled trial of 4AP with open-label rounds, overall findings", "type": "in vivo, human", "experimental": "as §1, §2"}, "subject with PCS [5]": {"system": "subject with PCS", "test": "Empiric clinical trial of 4AP, reported symptoms and side effects", "type": "in vivo, human", "text": "The study Subject had persisting stress-induced episodes of weakness and dysequilibrium, along with DBN. A crude phenomenological similarity of these symptoms to EA2 was noted. DNA sequencing of Subject's CACNA1A gene was done; no abnormality was found. Given intractable, persisting, and incapacitating nature of Subject's symptoms and the absence of any therapeutic alternatives, an empiric clinical trial of 4AP was agreed upon. Given subject's history of nephrolithiasis, it was felt that 4AP would be less likely to cause significant adverse reactions than acetazolamide. Subject provided written informed consent.\nThe Subject was treated by oral administration of 4-AP, starting with a minimal dose of 5 mg. […] Treatment continued for about six months, at which point a wash-out period was initiated.\nSide effects (initial blurring of vision, insomnia, and dyspepsia) were mild. Given these clinical results, a prospective, double blind case study was performed."}, "subject with PCS [6]": {"system": "subject with PCS", "test": "Neuro-optometric evaluation", "type": "in vivo, human", "conditions": "following treatment of 4AP"}, "subject with PCS [7]": {"system": "subject with PCS", "test": "Neurofeedback evaluation", "type": "in vivo, human", "conditions": "following treatment of 4AP"}, "downbeat nystagmus (DBN)": {"system": "downbeat nystagmus (DBN)", "conditions": "literature reports; cited from earlier work"}, "demyelinated axons": {"system": "demyelinated axons", "conditions": "experimental and clinical settings, literature; cited from earlier work"}, "[8]": {"system": "cerebellar Purkinje cells", "conditions": "in vitro, literature; cited from earlier work"}, "[9]": {"system": "multiple sclerosis patients", "conditions": "orally administered, over a period of days, literature; cited from earlier work"}, "[10]": {"conditions": "session 5 1st Open: open-label 4AP 10 mg twice daily, 5 weeks after formal study"}, "[11]": {"conditions": "session 6 2nd Open: open-label 4AP 10 mg twice daily, 9 weeks after formal study"}, "[12]": {"conditions": "two open phases, extended medication use"}}, "data": [{"smiles": "Nc1ccncc1", "note": "[4-AP, 4-Amino pyridine]", "values": [{"measurement": "Rivermead score", "setting": "subject with PCS [1]; session 4 Active: blinded, one week on 4-AP 10 mg twice daily, baseline 43, placebo 24, washout 44", "value": 41}, {"measurement": "Rivermead score", "setting": "subject with PCS [1]; [10]", "value": 21}, {"measurement": "Rivermead score", "setting": "subject with PCS [1]; [11]", "value": 7}, {"measurement": "Cancellation task percentile", "setting": "subject with PCS [2]; session 4 Active: blinded, one week on 4-AP 10 mg twice daily, baseline 37, placebo 37, washout 37", "value": 37, "unit": "percentile"}, {"measurement": "Cancellation task percentile", "setting": "subject with PCS [2]; [10]", "value": 75, "unit": "percentile"}, {"measurement": "Cancellation task percentile", "setting": "subject with PCS [2]; [11]", "value": 84, "unit": "percentile"}, {"measurement": "AIMS, active medication phase compared to placebo and washout conditions", "setting": "subject with PCS [3]; blinded phase, 4-AP 10 mg twice daily for one week", "value": "improvement"}, {"measurement": "AIMS Subscale", "setting": "subject with PCS [3]; session 4 Active: blinded, one week on 4-AP 10 mg twice daily, placebo 15.0, washout 9.5", "value": 4.5}, {"measurement": "Balance/mobility, symptoms and neuropsychological evaluations", "setting": "subject with PCS [4]; active phase compared with the other blinded phases (baseline, placebo, washout)", "value": "similar"}, {"measurement": "Balance/mobility and subjective symptoms", "setting": "subject with PCS [4]; [12]", "value": "improvement"}, {"measurement": "Cancellation and CVLT: cognitive processing speed and auditory memory", "setting": "subject with PCS [4]; [12]", "value": "improved"}, {"measurement": "Side effects (initial blurring of vision, insomnia, and dyspepsia)", "setting": "subject with PCS [5]; 10 mg twice daily", "value": "mild"}, {"measurement": "Symptoms reported by the Subject", "setting": "subject with PCS [5]; 10 mg twice daily", "value": "significant reduction in all symptoms"}, {"measurement": "Symptoms reported by the Subject", "setting": "subject with PCS [5]; oral, doses increased to 30 mg per day, lasted for the duration of treatment (about six months)", "value": "dramatic improvement in symptoms"}, {"measurement": "Adverse effects observed or reported within 3 hours of administration", "setting": "subject with PCS [5]; oral, minimal starting dose of 5 mg", "value": "No visible adverse effects"}, {"measurement": "Symptom intensity after termination of 4-AP treatment", "setting": "subject with PCS [5]; wash-out after about six months of treatment", "value": "rapid relapse of symptom intensity"}, {"measurement": "Overall neuro-optometric functioning", "setting": "subject with PCS [6]", "value": "unexpectedly improved"}, {"measurement": "Neurofeedback parameters (neurosynchronization, restoration of brain activity)", "setting": "subject with PCS [7]", "value": "dramatic and unexpected improvements"}, {"measurement": "Downbeat nystagmus (DBN)", "setting": "downbeat nystagmus (DBN)", "value": "relieve downbeat nystagmus"}, {"measurement": "Conduction in demyelinated axons", "setting": "demyelinated axons", "value": "improve conduction"}, {"measurement": "Excitability of cerebellar Purkinje cells", "setting": "[8]", "value": "increase the excitability"}, {"measurement": "Restoring nerve impulse transmission", "setting": "[9]", "value": "mild to moderate improvements"}]}]}
